Experimental data from patent US4918061A, “Method of preventing diseases caused by gram-negative endotoxin in mammals” (priority 1988, dated 1990).

Legend:
[1] = Biological activity after removal of moieties of lipid X
C57BL/10 mice [2] = experiment: Toxicity of lipid X in mice; format: in vivo, mouse
Procedure: To test for the toxicity of lipid X in mice, C57BL/10 mice were challenged with 750, 2000 or 5000 μg of lipid X intraperitoneally (12 mice) or with 750, 1500 or 3000 μg intravenously (7 mice).

sheep [3] = experiment: Hemodynamic response and toxicity of lipid X in sheep; format: in vivo; conditions: 40 sheep injected with lipid X
Procedure: The hemodynamic response of sheep to lipid X has been studied (18). Essentially, the conclusions are that: 1) lipid X (40 μg/kg cumulative dose) causes a transient (3-5 min) increase in pulmonary arterial pressure, that may be attributed to prostaglandin release, or stimulated synthesis. […] The only significant symptoms observed after injection of lipid X alone are transient lethargy and shortness of breath (15-30 min), without significant distress or obvious adverse long-term consequences.
A period of transient pulmonary hypertension and slight short ness of breath subsides after 30 minutes. About 30 sheep were examined by Burhop with regard to lipid X toxicity.

C57BL/10 mice [4] = experiment: Protection of mice by lipid X against lethal endotoxemia; format: in vivo, mouse
Procedure: FIG. 4. […] Controls receiving no lipid X are shown at the left of each panel. The number of mice per group is either three or four, and is the sum of the dead and the living. The number of survivors is shown at the top of the panel. Each point represents the death of one mouse. When all individuals died the mean time of death is shown as a horizontal bar. […] Doses of lipid X were administered in 0.1 ml of physiological saline that had been titrated to pH 8 with Tris to dissolve the lipid.
(§1) Experimental Animals. Eight week old mice (strain C57BL/10) were purchased from Jackson Laboratories, Bar Harbor, ME. Mixed bred sheep weighing 30-70 kg were obtained from the University of Wisconsin Experimental Farms. Sheep were prepared as follows: at least 24 hours before each experiment catheters were percutaneously placed in the pulmonary artery. Any other catheterizations that were required for infusion were done at this time. All studies were performed on awake, unrestrained sheep placed in portable stanchions with food and water ad libitum. Electronically calculated pulmonary artery pressures as well as heart rates were recorded at various intervals on a Gilson polygraph (Gilson Instruments, Middleton, WI). To ensure a stable baseline prior to the injection of test compounds, approximately 1 hour of baseline measurements were recorded.
Mice were allowed to rest for at least 7 days following their arrival and were sexually segregated and housed at 5 per cage with food and water ad libitum. […] No more than 0.1 ml of fluid was injected at a time. Just prior to injection, the mice were lightly anesthetized with ether. Following the injection, mice were observed every 0.5-6 hours and the time of death was recorded.
The lethal dose of E. coli endotoxin was determined both for the intravenous and of the intraperitoneal challenge.
Mice were given 750 μg of lipid X from 24 hours prior to 6 hours after endotoxin challenge with 1-2 LD100 doses.

sheep [5] = experiment: Protection of sheep by lipid X against lethal effects of intravenous lipopolysaccharide; format: in vivo
Procedure: Preparation of E. coli lipid X. The 2,3-diacylglucosamine 1-phosphate (E. coli lipid X) was isolated from E. coli strain MN7 (ATCC #39328) as described previously (9). […] Stock solutions (1-10 mg/ml) are usually prepared in aqueous 1 mM EDTA titrated to pH 8 with Tris-free base. […] In experiments involving the use of mice, solid lipid X was first dissolved in 0.9% saline (instead of water) and titrated with Tris-free base to pH 8 in the same manner.
(§2) Stock solutions of 5 mg/ml were prepared in sterile 0.9% saline.
as §1

[6] = Solution behaviour of lipid X; format: physicochemical
Procedure: (§3) Preparation of E. coli lipid X. The 2,3-diacylglucosamine 1-phosphate (E. coli lipid X) was isolated from E. coli strain MN7 (ATCC #39328) as described previously (9). Lipid X obtained in this manner is a solid white powder. Stock solutions (1-10 mg/ml) are usually prepared in aqueous 1 mM EDTA titrated to pH 8 with Tris-free base. Other monovalent counter ions, such as (NH4)^+, Na^+, K^+, etc., may also be used, but divalent cations such as Mg^++ and Ca^++ cause the lipid to precipitate. […] In experiments involving the use of mice, solid lipid X was first dissolved in 0.9% saline (instead of water) and titrated with Tris-free base to pH 8 in the same manner.

[7] = Storage stability of lipid X stock solutions; format: physicochemical; conditions: stock solutions 5-10 mg/ml stored frozen at -20° C.
Procedure: as §3

sheep [8] = conditions: cited from earlier work
B cell = conditions: cited from earlier work
macrophages = conditions: cited from earlier work
[9] = tested on: macrophage protein kinase C; conditions: cited from earlier work
[10] = tested on: experimental tumors in guinea pigs; conditions: cited from earlier work
[11] = previous work; dependent on being given prior to or very shortly after LPS challenge; cited from earlier work
sheep [12] = experiment: Lethality and clinical toxicity of intravenous lipopolysaccharide in sheep; conditions: usually the result of disseminated intravascular coagulopathy
Procedure: as §2, §1

[13] = sheep, pretreatment with lipid X
[14] = lipid X by itself 40-1000 μg/kg

For `CCCCCCCCCCCC(O)CC(=O)N[C@H]1[C@@H](OP(=O)(O)O)O[C@H](CO)[C@@H](O)[C@@H]1O` (stereo partly drawn) [N-monoacyl glucosamine 1-phosphate], the “biological activity after removal of the ester linked β-hydroxymyristoyl moiety” value ([1]; mild alkali treatment of lipid X) was “biologically inert”.

For `CCCCCCCCCCCC(O)CC(=O)N[C@H]1C(O)O[C@H](CO)[C@@H](O)[C@@H]1OC(=O)CC(O)CCCCCCCCCCC` (stereo partly drawn) [dephospho-X], the “biological activity after removal of the phosphate moiety” value ([1]; mild acid treatment of lipid X, may be due to inherent solubility of dephospho-X) was “reduces biological activity”.

In the case of `CCCCCCCCCCCC(O)CC(=O)N[C@H]1[C@@H](OP(=O)(O)O)O[C@H](CO)[C@@H](O)[C@@H]1OC(=O)CC(O)CCCCCCCCCCC` (stereo partly drawn) [lipid X, 2,3-diacylglucosamine 1-phosphate], the “survival after lipid X challenge” value (C57BL/10 mice [2]; 750, 2000 or 5000 μg intraperitoneally (12 mice) or 750, 1500 or 3000 μg intravenously (7 mice)) was “All these mice lived”, the “toxicity of lipid X” value (C57BL/10 mice [2]; mice) was “nontoxic in mice” and the “adverse complications of lipid X administration” value (sheep [3]) was “no serious adverse complications”. For the same molecule, the “last death after challenge” value (C57BL/10 mice [4]; 750 μg lipid X intravenously, 250 or 500 μg endotoxin intravenously) was no more than 5 days, the “mortality of group receiving lipid X shortly after endotoxin challenge” value (C57BL/10 mice [4]; both challenge doses, versus the group on either side) was “higher mortality than the group on either side” and the “onset and duration of protection against lipopolysaccharide” value (C57BL/10 mice [4]; compared with classical tolerance, which does not appear for many days) was “immediate and wears off after several hours”. The survival of mice (C57BL/10 mice [4]; lipid X (750 μg intravenously) from 1 hour prior to through 4 hours post LPS challenge, 250 μg endotoxin) was 81%, the survival of mice (C57BL/10 mice [4]; lipid X from 6 hours prior to endotoxin challenge through 1 hour after LPS challenge, intravenous, printed 500 μg lipid X) was “Forty-one” and the “prolongation of time to death” value (C57BL/10 mice [4]; lipid X intraperitoneally 2 hours before 1500 μg endotoxin (3 times LD100) intraperitoneally, data not shown) was “four”. For the same molecule, the time to death (C57BL/10 mice [4]; lipid X intraperitoneally 2 hours before 1500 μg endotoxin, about 20 hours without lipid X, data not shown) was roughly 80 h, the “resistance to the lethal effects of gram-negative endotoxin” value (C57BL/10 mice [4]; mice, pretreatment with lipid X) was “immediately resistant to the lethal effects” and the “prevention of lethal endotoxicity when given after lipopolysaccharide” value (C57BL/10 mice [4]; mouse, lipid X given 4 hours after lipopolysaccharide) was “appears to prevent lethal endotoxicity even when given 4 hours after lipopolysaccharide”. For the same molecule, the Survivors (sheep [5]; lipid X 50 μg/kg 1 hour prior to endotoxin, lipopolysaccharide 20 μg/kg) was 1/2, the Survivors (sheep [5]; lipid X 100 μg/kg 15 min. prior to endotoxin, lipopolysaccharide 10 μg/kg) was 3/3 and the Survivors (sheep [5]; lipid X 100 μg/kg 1 hour prior to endotoxin, lipopolysaccharide 20 μg/kg) was 4/4. For the same molecule, the Survivors (sheep [5]; lipid X 200 μg/kg 1 hour prior to endotoxin, lipopolysaccharide 20 μg/kg) was 3/3, the “survival of subsequent LPS challenge” value (sheep [5]; sheep receiving 100-200 μg/kg lipid X during the pretreatment period) was “all the sheep receiving 100-200 μg/kg of lipid X during the pretreatment period survived” and the “excess of lipid X over LPS required to ensure survival” value (sheep [5]; sheep, on a weight basis) was 5-10 fold. The “effect on pulmonary hypertension or fever induced by LPS” value (sheep [5]; [13]) was “does not prevent pulmonary hypertension or fever”, the “effect on serious clinical symptoms (shortness of breath, weakness, diarrhea, etc.)” value (sheep [5]; [13]) was “alleviates some of the serious clinical symptoms” and the “resistance to the lethal effects of gram-negative endotoxin” value (sheep [5]; [13]) was “immediately resistant to the lethal effects”. The “behaviour with divalent cations” value ([6]; Mg^++ and Ca^++) was “precipitate”, the “solution behaviour in Tris-EDTA” value ([6]; pH 8, stock solutions 1-10 mg/ml) was “forms a clear viscous solution” and the solubility in water ([6]; water) was “limited solubility”. For the same molecule, the storage stability [7] was “many months without evidence of significant deterioration”, the “duration of transient increase in pulmonary arterial pressure” value (sheep [8]; lipid X 40 μg/kg cumulative dose) was 3 to 5 min and the “duration of pulmonary hypertension” value (sheep [8]; lipid X 500-1000 μg/kg intravenously) was 5 to 10 min. For the same molecule, the “duration of transient lethargy and shortness of breath” value (sheep [8]; lipid X alone) was 15 to 30 min, the “marked illness or fever” value (sheep [8]; [14]) was “does not create marked illness or fever” and the “time for transient pulmonary hypertension and slight shortness of breath to subside” value (sheep [8]; [14]) was 30 min. For the same molecule, the “increased permeability of the pulmonary circulation” value (sheep [8]; lipid X, compared to endotoxin) was “to a very mild degree compared to endotoxin”, the “delay between injection and increase of pulmonary arterial pressure” value (sheep [8]; lipid X) was “no delay” and the life-threatening pulmonary edema (sheep [8]; lipid X) was “does not develop”. For the same molecule, the terminal endotoxemia (sheep [8]; very high doses of lipid X) was “fails to cause terminal endotoxemia”, the B cell mitogen (B cell) was “B cell mitogen” and the “macrophage activation with release of prostaglandin E2” value (macrophages) was “capable of activating macrophages with release of protaglandin E2”. The “activation of macrophage protein kinase C” value [9] was “can activate macrophage protein kinase C” and the “regression of experimental tumors” value [10] was “capable of inducing regression of experimental tumors in guinea pigs”.

In the case of `C=CCN1CC[C@]23c4c5ccc(O)c4O[C@H]2C(=O)CC[C@@]3(O)[C@H]1C5` [naloxone], the “prevention of the complications of lipopolysaccharide injection” value [11] is given as “limited prevention of the complications”.

With lipid A the “time of death after injection (occasional)” value (sheep [12]) was 1-2 weeks.
